# Results reported in ChEMBL document CHEMBL1201862, “PubChem BioAssay data set” (2004).
# Calls of active or inactive are those of the source.
# Assays:
# Kallikrein-7 = Kallikrein-7 (Homo sapiens, UniProt P49862); test: Fluorescence Intensity-based biochemical primary high throughput dose response assay to identify activators of kallikrein-7 (K7) zymogen.
# [1] = cytotoxicity in MITF-independent A375 cells – cell-based, CellTiter-Glo luminescence, dry powder, set 4, counter-screen for MITF inhibitor project, dose response (AID 624364); assay type: functional; settings: A-375;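 note: A375 melanoma cells are MITF independent so this is a counter screen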
# [2] = viability loss in MITF-independent A375 cells – cell-based, CellTiter-Glo luminescence, dry powder, set 2, counter-screen for MITF inhibitor project, dose response (AID 624489); assay type: functional; settings: A-375;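 note: actives are compounds lowering A375 viability meaning general cytotoxicity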
# [3] = system: Streptococcus sp. 'group A'; test: Streptococcus pyogenes SK(-)GAS viability under kanamycin – luminescence, BacTiterGlo, confirmation, counter-screen for streptokinase expression inhibitor project, dose response (AID 1900); assay type: functional, organism-based
# Streptokinase A = target: T1, Streptokinase A (Streptococcus pyogenes serotype M1, UniProt P10520); test: viability-normalized secreted streptokinase activity reduction – plasminogen activation absorbance, OD405, dose response (AID 1914); assay type: functional, Streptococcus pyogenes M1 GAS;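 note: secreted streptokinase activity via plasminogen activation per viability signal from cell pellet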
# T1 sequence (P10520 whole entry): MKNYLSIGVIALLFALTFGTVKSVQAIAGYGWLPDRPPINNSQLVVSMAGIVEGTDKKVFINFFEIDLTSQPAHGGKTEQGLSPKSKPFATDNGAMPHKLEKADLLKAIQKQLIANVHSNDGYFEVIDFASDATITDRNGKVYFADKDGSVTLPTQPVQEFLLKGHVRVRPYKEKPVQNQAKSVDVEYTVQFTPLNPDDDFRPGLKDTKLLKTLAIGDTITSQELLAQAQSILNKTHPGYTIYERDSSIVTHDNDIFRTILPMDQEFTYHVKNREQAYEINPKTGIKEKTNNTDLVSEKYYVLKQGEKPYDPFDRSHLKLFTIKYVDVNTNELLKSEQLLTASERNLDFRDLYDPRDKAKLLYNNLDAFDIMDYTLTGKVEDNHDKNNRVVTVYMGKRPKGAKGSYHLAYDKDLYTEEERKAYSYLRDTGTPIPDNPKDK
# [4] = microbe, parasite or virus in culture; assay type: functional; settings: Mycobacterium tuberculosis
# Streptococcus = test: GAS UMAA2166 growth inhibition – luminescence, BacTiterGlo, counter-screen for streptokinase expression inhibitor project, dose response (AID 1915); assay type: functional, organism-based;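 note: potency for reduction of bacterial viability or growth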
# [5] = Luminescence Cell-Based Dose Retest to Confirm Inhibitors of Cancer Stem Cells. [Related pubchem assays (depositor defined):AID2717, AID2721]; assay type: functional; settings: Homo sapiens
# [6] = target: Disintegrin and metalloproteinase domain-containing protein 17 (Homo sapiens, UniProt P78536); test: inhibition of ADAM17 substrate cleavage – biochemical, quenched FRET substrate, counter-screen for ADAM10 exosite inhibitor project, dose response (AID 743253)
# [7] = reduction of Shn3 3'UTR-driven luciferase in osteoblasts – cell-based, Clone20 osteoblasts, firefly luciferase, cherry-picked, dose response (AID 624132); assay type: functional;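 note: firefly luciferase luminescence from reporter carrying the Shn3 3'UTR in osteoblasts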
# [8] = non-specific 3'UTR reporter inhibition in Clone20-Shn3RL – cell-based, Renilla luciferase, cherry-picked, counter-screen for Shn3 inhibitor project, dose response (AID 624133); assay type: functional
# [9] = Shn3 3'UTR reporter signal decrease – cell-based, Clone20 osteoblasts, firefly luciferase, cherry-pick, set 2, Schnurri-3 inhibitor project, dose response (AID 720490); assay type: functional;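 note: actives lower the luminescence signal as inhibitors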
# [10] = target: FAD-linked sulfhydryl oxidase ALR (Homo sapiens, UniProt P55789); test: ALR-catalysed DTT oxidation blockers – biochemical, H2O2 detection, luminescence, cherry-pick, dose response (AID 493248)
# P388/ADR = test: cells; assay type: functional; settings: Mus musculus
# SN12K1 = test: cells; assay type: functional; settings: Homo sapiens
# P388 = test: cells; assay type: functional; settings: Mus musculus
# [11] = target: Endoplasmic reticulum aminopeptidase 1 (Homo sapiens, UniProt Q9NZ08); test: inhibition of human ERAP1 enzyme activity – biochemical, cherry-pick, set 2, plate reader, dose response (AID 743314)
# Cytochrome P450 1A2 = target: T2, Cytochrome P450 1A2 (Homo sapiens, UniProt P05177);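 note: PubChem cytochrome P450 panel assay, CYP1A2 panel member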
# T2 sequence (P05177 whole entry): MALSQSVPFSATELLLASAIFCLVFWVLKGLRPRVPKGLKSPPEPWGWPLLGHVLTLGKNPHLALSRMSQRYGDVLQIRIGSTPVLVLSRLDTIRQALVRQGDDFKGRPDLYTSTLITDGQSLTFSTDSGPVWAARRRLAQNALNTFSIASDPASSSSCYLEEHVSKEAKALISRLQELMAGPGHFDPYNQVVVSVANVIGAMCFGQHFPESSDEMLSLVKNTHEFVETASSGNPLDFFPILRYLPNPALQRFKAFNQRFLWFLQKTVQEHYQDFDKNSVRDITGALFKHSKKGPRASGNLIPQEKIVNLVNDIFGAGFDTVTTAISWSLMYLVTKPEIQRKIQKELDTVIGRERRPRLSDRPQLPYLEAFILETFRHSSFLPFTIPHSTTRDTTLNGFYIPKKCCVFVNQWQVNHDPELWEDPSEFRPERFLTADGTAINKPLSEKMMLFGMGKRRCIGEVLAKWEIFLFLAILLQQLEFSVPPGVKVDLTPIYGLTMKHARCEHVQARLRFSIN
# Paired box protein Pax-8 = Paired box protein Pax-8 (Homo sapiens, UniProt Q06710); test: PAX8 transcriptional activity inhibition in RMG-I – RMG-I cells, luciferase, cherry-pick, dose response (AID 687027); assay type: functional, cell-based;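 note: luciferase reporter driven by Pax8 target thyroperoxidase promoter measured by SteadyGlo luminescence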
# [12] = A2780 cell killing – plate reader, dry powder samples, cytotoxicity control, dose response (AID 743046); assay type: functional, cell-based
# [13] = OVCAR-3 cell viability loss – plate reader, dry powder samples, PAX8 inhibitor project, dose response (AID 743044); assay type: functional, cell-based
# [14] = OVCAR8 cell viability loss – plate reader, dry powder samples, PAX8 project, dose response (AID 743197); assay type: functional, cell-based; settings: OVCAR-8
# Sequence of Paired box protein Pax-8 (Q06710 whole entry): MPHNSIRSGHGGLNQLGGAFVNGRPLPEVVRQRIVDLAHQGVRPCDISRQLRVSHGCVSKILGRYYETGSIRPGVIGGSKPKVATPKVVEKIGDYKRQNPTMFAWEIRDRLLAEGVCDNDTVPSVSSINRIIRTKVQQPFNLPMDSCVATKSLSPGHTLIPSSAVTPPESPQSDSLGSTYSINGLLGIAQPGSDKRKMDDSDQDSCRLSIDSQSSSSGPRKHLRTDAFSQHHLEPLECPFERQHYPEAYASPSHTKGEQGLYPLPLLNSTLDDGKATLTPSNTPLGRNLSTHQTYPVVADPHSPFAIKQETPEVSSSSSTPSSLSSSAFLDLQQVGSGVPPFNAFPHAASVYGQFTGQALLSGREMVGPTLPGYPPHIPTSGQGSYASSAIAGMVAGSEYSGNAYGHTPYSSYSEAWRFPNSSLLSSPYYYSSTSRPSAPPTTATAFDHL
# Sequence of Endoplasmic reticulum aminopeptidase 1 (Q9NZ08 whole entry): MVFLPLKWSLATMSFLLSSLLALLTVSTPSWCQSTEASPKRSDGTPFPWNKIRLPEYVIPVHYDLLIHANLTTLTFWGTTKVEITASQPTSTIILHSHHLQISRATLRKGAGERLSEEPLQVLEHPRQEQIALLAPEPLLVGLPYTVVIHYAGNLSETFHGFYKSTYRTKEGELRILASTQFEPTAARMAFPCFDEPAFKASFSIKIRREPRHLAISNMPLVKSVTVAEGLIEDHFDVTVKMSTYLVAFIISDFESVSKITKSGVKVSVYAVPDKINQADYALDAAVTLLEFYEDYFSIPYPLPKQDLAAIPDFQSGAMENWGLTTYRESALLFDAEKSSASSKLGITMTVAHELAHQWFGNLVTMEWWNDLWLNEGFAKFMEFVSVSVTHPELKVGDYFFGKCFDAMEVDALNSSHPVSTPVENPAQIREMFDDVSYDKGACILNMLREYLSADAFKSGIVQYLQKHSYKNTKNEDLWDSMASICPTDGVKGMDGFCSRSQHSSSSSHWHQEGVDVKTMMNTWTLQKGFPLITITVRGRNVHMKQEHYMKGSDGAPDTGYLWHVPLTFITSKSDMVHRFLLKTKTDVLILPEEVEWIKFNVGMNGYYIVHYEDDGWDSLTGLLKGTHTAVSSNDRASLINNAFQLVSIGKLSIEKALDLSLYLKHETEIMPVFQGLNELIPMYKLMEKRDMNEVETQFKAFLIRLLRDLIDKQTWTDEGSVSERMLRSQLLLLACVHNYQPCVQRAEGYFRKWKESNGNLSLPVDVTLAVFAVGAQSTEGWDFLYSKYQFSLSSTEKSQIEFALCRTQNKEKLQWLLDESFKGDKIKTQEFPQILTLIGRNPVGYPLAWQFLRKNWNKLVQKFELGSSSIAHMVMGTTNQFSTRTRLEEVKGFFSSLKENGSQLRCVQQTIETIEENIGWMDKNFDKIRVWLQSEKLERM
# Sequence of Disintegrin and metalloproteinase domain-containing protein 17 (P78536 whole entry, the tested form may be a part): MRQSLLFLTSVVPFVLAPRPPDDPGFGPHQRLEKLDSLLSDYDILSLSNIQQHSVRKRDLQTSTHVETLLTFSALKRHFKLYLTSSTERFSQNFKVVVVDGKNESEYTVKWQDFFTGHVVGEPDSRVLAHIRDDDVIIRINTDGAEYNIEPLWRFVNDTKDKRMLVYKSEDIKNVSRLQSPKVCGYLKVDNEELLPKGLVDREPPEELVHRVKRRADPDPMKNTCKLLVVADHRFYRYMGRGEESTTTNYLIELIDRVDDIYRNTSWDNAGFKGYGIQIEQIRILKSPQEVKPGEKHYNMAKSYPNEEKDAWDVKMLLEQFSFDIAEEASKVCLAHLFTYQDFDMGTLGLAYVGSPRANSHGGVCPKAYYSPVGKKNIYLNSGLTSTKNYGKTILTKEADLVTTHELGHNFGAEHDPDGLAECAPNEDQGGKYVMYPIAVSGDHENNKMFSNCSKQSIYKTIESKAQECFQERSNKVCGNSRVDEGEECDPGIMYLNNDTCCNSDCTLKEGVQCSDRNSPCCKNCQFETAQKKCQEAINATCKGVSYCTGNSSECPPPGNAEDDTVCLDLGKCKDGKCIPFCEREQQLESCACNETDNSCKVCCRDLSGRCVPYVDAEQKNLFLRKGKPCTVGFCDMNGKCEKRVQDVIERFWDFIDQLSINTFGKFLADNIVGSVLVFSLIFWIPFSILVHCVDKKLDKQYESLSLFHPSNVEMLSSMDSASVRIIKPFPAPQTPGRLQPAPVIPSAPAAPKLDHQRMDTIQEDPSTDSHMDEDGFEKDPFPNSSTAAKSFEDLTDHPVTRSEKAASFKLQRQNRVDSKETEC
# Sequence of Kallikrein-7 (P49862 whole entry): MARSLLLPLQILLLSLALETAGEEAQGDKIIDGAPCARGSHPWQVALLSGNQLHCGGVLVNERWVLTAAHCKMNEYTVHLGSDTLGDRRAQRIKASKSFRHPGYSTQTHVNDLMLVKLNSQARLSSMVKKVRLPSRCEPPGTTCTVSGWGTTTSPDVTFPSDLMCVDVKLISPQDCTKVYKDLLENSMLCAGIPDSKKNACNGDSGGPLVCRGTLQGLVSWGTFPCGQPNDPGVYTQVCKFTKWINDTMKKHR
# Sequence of FAD-linked sulfhydryl oxidase ALR (P55789 whole entry): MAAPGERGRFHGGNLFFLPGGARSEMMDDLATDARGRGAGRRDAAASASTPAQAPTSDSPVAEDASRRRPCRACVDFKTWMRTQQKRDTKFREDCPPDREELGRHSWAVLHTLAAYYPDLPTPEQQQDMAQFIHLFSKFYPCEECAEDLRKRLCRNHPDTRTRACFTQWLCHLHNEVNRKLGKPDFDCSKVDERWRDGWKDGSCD
structure (smiles),measurement,setting,value
O=c1c(-c2ccccc2)coc2c(CN3CCOCC3)c(O)ccc12,EC50,Kallikrein-7,12.4 µM (inactive)
NC1=C(c2ccc(OC(F)(F)F)cc2)C(=O)c2ccccc2C1=O,AC50,[1],> 70 µM (inactive)
same,AC50,[2],> 70 µM (inactive)
O=C(Nc1ccc(OCC(F)(F)C(F)F)c(C(F)(F)F)c1)c1ccc(Cl)cc1,EC50,[3],5.77 µM (active)
same,EC50,Streptokinase A,1.77 µM (active)
same,CC50,[4],13.4 µM (active)
same,EC50,Streptococcus,7.49 µM (active)
same,AC50,[5],3.52 µM (active)
same,IC50,[6],> 69.5 µM (inactive)
COc1ccccc1NC(=O)Cn1cc(C(=O)C2CC2)c2ccccc21,AC50,[7],4.76 µM (active)
same,AC50,[8],29 µM (active)
same,AC50,[9],6.08 µM (active)
COc1cc2ccc(=O)oc2cc1O [SCOPOLETIN],AC50,[10],4.4 µM (active)
same,GI50,P388/ADR,12.5 µM (inactive)
same,GI50,SN12K1,19.4 µM (inactive)
same,GI50,P388,5.55 µM (inactive)
same,AC50,[11],5.79 µM (active)
same,AC50,Cytochrome P450 1A2,5.01 µM (inconclusive)
C[C@@H]1CCCCO[C@H](CN(C)C(=O)Cc2ccccc2)[C@@H](C)CN([C@@H](C)CO)C(=O)c2cc(NC(=O)Nc3ccc(C(F)(F)F)cc3)ccc2O1,AC50,Paired box protein Pax-8,2.85 µM (active)
same,AC50,[12],54.7 µM (active)
same,AC50,[13],54.5 µM (active)
same,AC50,[14],58.8 µM (active)
